Measurements taken from the supplement of paper PMC10011410.
± gives the standard deviation of the averaged measurements.

Experiments:
Conditions in all cases: 24 h
[1] = system: U-2 OS; assay: intracellular GSH:GSSG ratio (calculated); higher = more reduced glutathione pool
Description: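 Intracellular glutathione in U-2 OS cells after 24 h compound treatment at 5, 10 and 20 uM (some at 40 and 80 uM). Total glutathione and GSSG were measured with the GSH/GSSG-Glo kit, and the GSH:GSSG ratio was calculated. Mean of five technical replicate plates.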

[2] = system: U-2 OS; assay: cell viability (CellTiter-Glo) relative to DMSO (% of control); higher = more viable
Description: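 Cell viability of U-2 OS cells by CellTiter-Glo after 24 h compound treatment at 5, 10 and 20 uM (some at 40 and 80 uM), measured in parallel with the glutathione assay, as percent of DMSO control. Five technical replicate plates, averaged.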

[3] = system: U-2 OS; assay: total intracellular glutathione (GSH + GSSG) relative to DMSO (% of control); higher = more glutathione
Description: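 Total intracellular glutathione (GSH + GSSG) in U-2 OS cells by GSH/GSSG-Glo after 24 h compound treatment at 5, 10 and 20 uM (some at 40 and 80 uM), as percent of DMSO control. Five technical replicate plates, averaged.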

[4] = system: U-2 OS; assay: cell painting activity score (Mahalanobis distance from DMSO wells); higher = stronger morphological phenotype
Summary of the method: (§1)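 U-2 OS cells were seeded at about 1,500 per well in 384-well plates and treated by pin tool for 24 h at 37 °C, usually at six 2-fold concentrations from 20 μM to 625 nM. After staining with MitoTracker, concanavalin A, phalloidin, wheat germ agglutinin, Hoechst and SYTO 14, plates were imaged on an Opera Phenix and features were extracted with CellProfiler and normalized to DMSO cells on the same plate. The activity score is the Mahalanobis distance from DMSO wells, and cell count is given relative to DMSO wells. Each value is the mean of four replicate plates.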

[5] = system: U-2 OS; assay: relative cell count vs DMSO (cell painting) (fraction of DMSO control); higher = more cells remaining (less cytotoxic)
Summary of the method: as §1

C=CC(=O)N1CCN(c2ncnc3c(F)c(-c4c(O)cccc4F)c(Cl)cc23)CC1
intracellular GSH:GSSG ratio ([1]; 5 µM): 18.9
intracellular GSH:GSSG ratio ([1]; 10 µM): 16.4
intracellular GSH:GSSG ratio ([1]; 20 µM): 11.6
cell viability ([2]; 5 µM): 91.3 ± 4.4
cell viability ([2]; 10 µM): 89.2 ± 6.2
cell viability ([2]; 20 µM): 100 ± 6.9
total intracellular glutathione ([3]; 5 µM): 105 ± 3.9
total intracellular glutathione ([3]; 10 µM): 104 ± 3.3
total intracellular glutathione ([3]; 20 µM): 102 ± 3.2
cell painting activity score ([4]; 0.625 µM): 10.3
cell painting activity score ([4]; 1.25 µM): 8.82
cell painting activity score ([4]; 2.5 µM): 11.4
cell painting activity score ([4]; 5 µM): 11
cell painting activity score ([4]; 10 µM): 11.8
cell painting activity score ([4]; 20 µM): 16
relative cell count ([5]; 0.625 µM): 0.691
relative cell count ([5]; 1.25 µM): 0.719
relative cell count ([5]; 2.5 µM): 0.571
relative cell count ([5]; 5 µM): 0.555
relative cell count ([5]; 10 µM): 0.531
relative cell count ([5]; 20 µM): 0.516

COC1=CC=C(S(=O)(O/N=C2C=C(C(C(C)=C\2)=O)C)=O)C=C1
intracellular GSH:GSSG ratio ([1]; 5 µM): 4.85
intracellular GSH:GSSG ratio ([1]; 10 µM): 2.61
cell viability ([2]; 5 µM): 31.2 ± 1.5
cell viability ([2]; 10 µM): 15.9 ± 2
cell viability ([2]; 20 µM): 9.58 ± 10
cell viability ([2]; 40 µM): 0.28 ± 0.061
cell viability ([2]; 80 µM): 0.124 ± 0.018
total intracellular glutathione ([3]; 5 µM): 59.9 ± 4
total intracellular glutathione ([3]; 10 µM): 41.1 ± 5.9
total intracellular glutathione ([3]; 20 µM): 6.59 ± 2.2
total intracellular glutathione ([3]; 40 µM): 0.79 ± 0.15
total intracellular glutathione ([3]; 80 µM): 0.604 ± 0.13
cell painting activity score ([4]; 0.625 µM): 4.25
cell painting activity score ([4]; 1.25 µM): 8.9
cell painting activity score ([4]; 2.5 µM): 10.5
cell painting activity score ([4]; 5 µM): 12
cell painting activity score ([4]; 10 µM): 16.6
cell painting activity score ([4]; 20 µM): 24.6
cell painting activity score ([4]; 40 µM): 22.8
cell painting activity score ([4]; 80 µM): 20.4
relative cell count ([5]; 0.625 µM): 1.01
relative cell count ([5]; 1.25 µM): 0.93
relative cell count ([5]; 2.5 µM): 0.9
relative cell count ([5]; 5 µM): 0.718
relative cell count ([5]; 10 µM): 0.17
relative cell count ([5]; 20 µM): 0.237
relative cell count ([5]; 40 µM): 0.146
relative cell count ([5]; 80 µM): 0.0922

CC1=NN(c2ccc(C(=O)O)cc2)C(=O)/C1=C\c1ccc(-c2cc(C)c(C)cc2[N+](=O)[O-])o1
intracellular GSH:GSSG ratio ([1]; 5 µM): 27.1
intracellular GSH:GSSG ratio ([1]; 10 µM): 21.9
intracellular GSH:GSSG ratio ([1]; 20 µM): 23.1
intracellular GSH:GSSG ratio ([1]; 40 µM): 20
intracellular GSH:GSSG ratio ([1]; 80 µM): 18.3
cell viability ([2]; 5 µM): 91.3 ± 6.4
cell viability ([2]; 10 µM): 91.1 ± 2.4
cell viability ([2]; 20 µM): 96.4 ± 7.8
cell viability ([2]; 40 µM): 107 ± 8.1
cell viability ([2]; 80 µM): 90.6 ± 5.9
total intracellular glutathione ([3]; 5 µM): 96 ± 2.5
total intracellular glutathione ([3]; 10 µM): 105 ± 3.6
total intracellular glutathione ([3]; 20 µM): 101 ± 4
total intracellular glutathione ([3]; 40 µM): 102 ± 7.7
total intracellular glutathione ([3]; 80 µM): 102 ± 5.6
cell painting activity score ([4]; 0.625 µM): 5.05
cell painting activity score ([4]; 1.25 µM): 4.06
cell painting activity score ([4]; 2.5 µM): 4.65
cell painting activity score ([4]; 5 µM): 6.01
cell painting activity score ([4]; 10 µM): 14.4
cell painting activity score ([4]; 20 µM): 15
relative cell count ([5]; 0.625 µM): 0.893
relative cell count ([5]; 1.25 µM): 0.944
relative cell count ([5]; 2.5 µM): 0.894
relative cell count ([5]; 5 µM): 0.904
relative cell count ([5]; 10 µM): 0.854
relative cell count ([5]; 20 µM): 0.787
